Test results reported in PubChem BioAssay (NCI).
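Where inhibition never reached the appropriate level, the endpoint shown equals the highest concentration tested. Otherwise, values were interpolated linearly from a five-concentration, 48-hour dose response in 96-well plates. Here, GI50 denotes the concentration required for 50% inhibition of growth. Definition used: TGI = concentration required for complete inhibition of growth.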

Columns and labels:
Test in all cases: inhibition of tumour cell growth, NCI panel, 48 h
[1] = test system: SK-MEL-2 melanoma
[2] = test system: HT29 colon
[3] = test system: SF-295 CNS
[4] = test system: HS 578T breast
[5] = test system: HCT-15 colon
[6] = test system: HCC-2998 colon
[7] = test system: NCI-H226 lung
[8] = test system: NCI-H23 lung
[9] = test system: MDA-MB-231 breast
[10] = test system: SF-539 CNS
[11] = test system: HOP-92 NSCLC
[12] = test system: NCI-H460 lung
[13] = test system: SK-MEL-5 melanoma
[14] = test system: MOLT-4 leukemia
[15] = test system: 786-0 renal
[16] = test system: TK-10 renal
[17] = test system: UO-31 renal
[18] = test system: IGROV1 ovarian
[19] = test system: M14 melanoma
[20] = test system: SNB-19 CNS
[21] = test system: T-47D breast
[22] = test system: ACHN renal
[23] = test system: A498 renal
[24] = test system: OVCAR-5 ovarian
[25] = test system: OVCAR-4 ovarian
[26] = test system: COLO 205 colon
[27] = test system: OVCAR-8 ovarian
[28] = test system: SN12C renal

CC(C)(C)c1ccc(S(=O)(=O)N[C@H]2CC[C@H]3[C@@H]4CCc5cc(OS(=O)(=O)O)ccc5[C@H]4CC[C@]23C)cc1 showed a GI50 [1] of 2.46 µM, a TGI [1] of 5.86 µM and a GI50 [2] of 2.19 µM. For the same compound, the TGI [2] was 4.57 µM, the GI50 [3] was 2.51 µM and the TGI [3] was 6.76 µM. The GI50 [4] was 2.69 µM, the TGI [4] was 7.27 µM and the GI50 [5] was 1.79 µM. It also gave a TGI [5] of 3.59 µM, a GI50 [6] of 4.09 µM and a TGI [6] of 13.1 µM. The GI50 [7] was 1.59 µM, the TGI [7] was 3.06 µM and the GI50 [8] was 2.6 µM. The TGI [8] was 9.15 µM, the GI50 [9] was 1.94 µM and the TGI [9] was 4.26 µM. The GI50 [10] was 1.8 µM, the TGI [10] was 3.34 µM and the GI50 [11] was 2.11 µM. The TGI [11] was 5.31 µM, the GI50 [12] was 2.19 µM and the TGI [12] was 4.79 µM. For the same compound, the GI50 [13] was 1.64 µM, the TGI [13] was 2.99 µM and the GI50 [14] was 2.65 µM. It also gave a TGI [14] of 9.55 µM, a GI50 [15] of 2.5 µM and a TGI [15] of 6.3 µM. The GI50 [16] was 3.69 µM, the TGI [16] was 12.4 µM and the GI50 [17] was 1.8 µM. For the same compound, the TGI [17] was 4.4 µM, the GI50 [18] was 3.63 µM and the TGI [18] was 10.9 µM. It also gave a GI50 [19] of 2.07 µM, a TGI [19] of 4.31 µM and a GI50 [20] of 3.49 µM. The TGI [20] was 13.8 µM, the GI50 [21] was 2.82 µM and the TGI [21] was 9.96 µM. The GI50 [22] was 2.01 µM, the TGI [22] was 4.24 µM and the GI50 [23] was 1.5 µM. It also gave a TGI [23] of 3.04 µM, a GI50 [24] of 1.88 µM and a TGI [24] of 3.63 µM. For the same compound, the GI50 [25] was 2.49 µM, the TGI [25] was 9.92 µM and the GI50 [26] was 1.83 µM. It also gave a TGI [26] of 3.29 µM, a GI50 [27] of 2.79 µM and a TGI [27] of 8.46 µM. For the same compound, the GI50 [28] was 1.81 µM.
